In ChEMBL document CHEMBL1201862, “PubChem BioAssay data set” (2004):
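The compound was tested at five concentrations on cells cultured in 96-well plates, with a 48-hour exposure period. GI50 = concentration required for 50% inhibition of growth.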 Activity calls are given as the source filed them. Cut-off read from the data, not from the text of the source: active = GI50 up to about 1.1 µM and inactive = higher.

Experiments:
Test in all cases: inhibition of tumour cell growth, NCI panel, 48 h
[1] = tested on: CAKI-1
[2] = tested on: HOP-62
[3] = tested on: SF-539
[4] = tested on: UACC-62
[5] = tested on: HCC 2998
[6] = tested on: EKVX
[7] = tested on: M19-MEL
[8] = tested on: OVCAR-8
[9] = tested on: SK-MEL-28
[10] = tested on: SK-OV-3
[11] = tested on: A549
[12] = tested on: HOP-92
[13] = tested on: HT-29
[14] = tested on: SW-620
[15] = tested on: KM12
[16] = tested on: HCT-15
[17] = tested on: KM-20L2
[18] = tested on: M14
[19] = tested on: RXF 393
[20] = tested on: LXFL 529
[21] = tested on: NCI-H460
[22] = tested on: NCI-H522
[23] = tested on: U-251
[24] = tested on: UACC-257
[25] = tested on: XF498
[26] = tested on: MOLT-4
[27] = tested on: 786-0
[28] = tested on: SF-268
[29] = tested on: SR
[30] = tested on: IGROV-1
[31] = tested on: TK-10
[32] = tested on: SF-295
[33] = tested on: DMS-114
[34] = tested on: DMS-273
[35] = tested on: CCRF-CEM
[36] = tested on: SNB-19
[37] = tested on: A498
[38] = tested on: SK-MEL-2
[39] = tested on: SNB-75
[40] = tested on: NCI-H226
[41] = tested on: HOP-18
[42] = tested on: Malme-3M
[43] = tested on: SK-MEL-5
[44] = tested on: UO-31
[45] = tested on: OVCAR-5
[46] = tested on: HL-60
[47] = tested on: SN12C
[48] = tested on: OVCAR-4
[49] = tested on: DLD-1
[50] = tested on: K562
[51] = tested on: ACHN
[52] = tested on: HCT-116
[53] = tested on: RXF 631
[54] = tested on: NCI-H23
[55] = tested on: RPMI-8226
[56] = tested on: COLO 205
[57] = tested on: OVCAR-3
[58] = tested on: SNB-78
[59] = tested on: LOX IMVI

Compound: CN(C)C(=S)/N=c1\ssc(=S)n1C1CCCCC1
- GI50 [1]: 33 µM (inactive)
- GI50 [2]: > 100 µM (inactive)
- GI50 [3]: 20.7 µM (inactive)
- GI50 [4]: 10.4 µM (inactive)
- GI50 [5]: 37.1 µM (inactive)
- GI50 [6]: 45.7 µM (inactive)
- GI50 [7]: 18.7 µM (inactive)
- GI50 [8]: 21.4 µM (inactive)
- GI50 [9]: 36.1 µM (inactive)
- GI50 [10]: > 100 µM (inactive)
- GI50 [11]: 22.8 µM (inactive)
- GI50 [12]: 35.2 µM (inactive)
- GI50 [13]: 35.7 µM (inactive)
- GI50 [14]: 13.7 µM (inactive)
- GI50 [15]: 35.7 µM (inactive)
- GI50 [16]: 33.1 µM
- GI50 [17]: 40.5 µM (inactive)
- GI50 [18]: 14.7 µM (inactive)
- GI50 [19]: 33.3 µM (inactive)
- GI50 [20]: 13.2 µM (inactive)
- GI50 [21]: 18 µM (inactive)
- GI50 [22]: 13.1 µM (inactive)
- GI50 [23]: 17 µM (inactive)
- GI50 [24]: 22.4 µM (inactive)
- GI50 [25]: 19.4 µM (inactive)
- GI50 [26]: 18.2 µM (inactive)
- GI50 [27]: 17.1 µM (inactive)
- GI50 [28]: 32.4 µM (inactive)
- GI50 [29]: 20.5 µM (inactive)
- GI50 [30]: 98.9 µM (inactive)
- GI50 [31]: > 100 µM (inactive)
- GI50 [32]: 60.5 µM (inactive)
- GI50 [33]: 13.9 µM (inactive)
- GI50 [34]: 28.2 µM (inactive)
- GI50 [35]: 0.23 µM (active)
- GI50 [36]: 57.7 µM (inactive)
- GI50 [37]: 37.2 µM (inactive)
- GI50 [38]: 52.8 µM (inactive)
- GI50 [39]: 42.7 µM (inactive)
- GI50 [40]: 52.5 µM (inactive)
- GI50 [41]: > 100 µM (inactive)
- GI50 [42]: 23.4 µM (inactive)
- GI50 [43]: 12.4 µM (inactive)
- GI50 [44]: 61.1 µM (inactive)
- GI50 [45]: 74.1 µM (inactive)
- GI50 [46]: 11.2 µM (inactive)
- GI50 [47]: 29.4 µM (inactive)
- GI50 [48]: 39.4 µM (inactive)
- GI50 [49]: 21.5 µM (inactive)
- GI50 [50]: 16.9 µM (inactive)
- GI50 [51]: 35.9 µM (inactive)
- GI50 [52]: 16.5 µM (inactive)
- GI50 [53]: 19.5 µM (inactive)
- GI50 [54]: 44 µM (inactive)

Compound: N#C/C(=C\c1cccc(Cl)c1Cl)c1ccccc1
- GI50 [1]: 40.1 µM (inactive)
- GI50 [2]: 37 µM (inactive)
- GI50 [3]: 35.1 µM (inactive)
- GI50 [4]: 58.3 µM (inactive)
- GI50 [5]: > 79.3 µM (inactive)
- GI50 [6]: > 69.5 µM (inactive)
- GI50 [7]: > 84.3 µM (inactive)
- GI50 [8]: 53.3 µM (inactive)
- GI50 [9]: > 100 µM (inactive)
- GI50 [10]: 45.7 µM (inactive)
- GI50 [55]: > 61.9 µM (inactive)
- GI50 [11]: 66.8 µM (inactive)
- GI50 [12]: 44.5 µM (inactive)
- GI50 [13]: > 89.5 µM (inactive)
- GI50 [14]: > 53 µM (inactive)
- GI50 [15]: > 82.4 µM (inactive)
- GI50 [16]: > 57.4 µM
- GI50 [17]: > 100 µM (inactive)
- GI50 [18]: 74.5 µM (inactive)
- GI50 [19]: 31 µM (inactive)
- GI50 [20]: 54 µM (inactive)
- GI50 [21]: 58.9 µM (inactive)
- GI50 [22]: 52.8 µM (inactive)
- GI50 [23]: 36.2 µM (inactive)
- GI50 [24]: > 100 µM (inactive)
- GI50 [25]: > 42.3 µM (inactive)
- GI50 [26]: > 100 µM (inactive)
- GI50 [27]: 37.6 µM (inactive)
- GI50 [28]: 58.1 µM (inactive)
- GI50 [29]: > 38.1 µM (inactive)
- GI50 [30]: 33.7 µM (inactive)
- GI50 [56]: > 100 µM (inactive)
- GI50 [31]: 57.3 µM (inactive)
- GI50 [32]: 38.4 µM (inactive)
- GI50 [33]: 43.7 µM (inactive)
- GI50 [34]: 21 µM (inactive)
- GI50 [35]: 39.3 µM (inactive)
- GI50 [57]: 46.9 µM (inactive)
- GI50 [58]: 50.2 µM (inactive)
- GI50 [36]: > 49.3 µM (inactive)
- GI50 [37]: 34.6 µM (inactive)
- GI50 [38]: 47.1 µM (inactive)
- GI50 [39]: 19.1 µM (inactive)
- GI50 [40]: 56.2 µM (inactive)
- GI50 [41]: 52.2 µM (inactive)
- GI50 [42]: > 48.2 µM (inactive)
- GI50 [43]: 65.3 µM (inactive)
- GI50 [44]: 48.1 µM (inactive)
- GI50 [45]: > 100 µM (inactive)
- GI50 [46]: > 100 µM (inactive)
- GI50 [47]: 49.1 µM (inactive)
- GI50 [48]: 61.5 µM (inactive)
- GI50 [49]: > 72.8 µM (inactive)
- GI50 [50]: > 72.4 µM (inactive)
- GI50 [51]: 44.9 µM (inactive)
- GI50 [52]: 33 µM (inactive)
- GI50 [59]: > 75.9 µM (inactive)
- GI50 [53]: 50 µM (inactive)
- GI50 [54]: 40.8 µM (inactive)

Compound: COC(=O)c1cc(-c2cccn2C)c2c(c1C(=O)OC)c1ccccc1n2C
- GI50 [3]: 43.8 µM (inactive)
- GI50 [4]: > 100 µM (inactive)
- GI50 [5]: 45.5 µM (inactive)
- GI50 [8]: 56.9 µM (inactive)
- GI50 [9]: 71.1 µM (inactive)
- GI50 [10]: > 100 µM (inactive)
- GI50 [55]: 43.7 µM (inactive)
- GI50 [11]: 31.8 µM (inactive)
- GI50 [12]: 50.5 µM (inactive)
- GI50 [13]: 6.98 µM (inactive)
- GI50 [14]: 85.1 µM (inactive)
- GI50 [15]: 53.7 µM (inactive)
- GI50 [16]: 22.4 µM
- GI50 [18]: 77.4 µM (inactive)
- GI50 [19]: > 100 µM (inactive)
- GI50 [20]: 40.2 µM (inactive)
- GI50 [21]: 39.8 µM (inactive)
- GI50 [22]: 18.1 µM (inactive)
- GI50 [23]: 70.5 µM (inactive)
- GI50 [24]: 82 µM (inactive)
- GI50 [25]: > 100 µM (inactive)
- GI50 [26]: 3.13 µM (inactive)
- GI50 [27]: > 100 µM (inactive)
- GI50 [29]: 16.9 µM (inactive)
- GI50 [30]: > 100 µM (inactive)
- GI50 [56]: 32.9 µM (inactive)
- GI50 [31]: > 100 µM (inactive)
- GI50 [32]: 41.3 µM (inactive)
- GI50 [33]: 40.3 µM (inactive)
- GI50 [34]: 34.1 µM (inactive)
- GI50 [57]: 12.7 µM (inactive)
- GI50 [58]: > 100 µM (inactive)
- GI50 [36]: > 100 µM (inactive)
- GI50 [38]: > 100 µM (inactive)
- GI50 [39]: 71.4 µM (inactive)
- GI50 [41]: > 100 µM (inactive)
- GI50 [42]: > 100 µM (inactive)
- GI50 [43]: 44.3 µM (inactive)
- GI50 [44]: > 100 µM (inactive)
- GI50 [46]: 37.5 µM (inactive)
- GI50 [47]: > 100 µM (inactive)
- GI50 [48]: 37.8 µM (inactive)
- GI50 [49]: 7.62 µM (inactive)
- GI50 [50]: 13.5 µM (inactive)
- GI50 [51]: 17.9 µM (inactive)
- GI50 [59]: 56 µM (inactive)
- GI50 [53]: 80.4 µM (inactive)
- GI50 [54]: 85.7 µM (inactive)
